Results on 14 molecules are retold here after PMC4350406, “Mechanism of Action of 2-Aminobenzamide HDAC Inhibitors in Reversing Gene Silencing in Friedreich’s Ataxia” (Frontiers in Neurology, 2015).

Data set [1] concerns the target T1, Recombinant human HDAC1 (Homo sapiens, UniProt Q13547). As to the kind of experiment: HDAC1 deacetylase activity assay (acetyl-Lys(Ac)-AMC / Lys-C peptidase, progression curves).
Data set [2] has as its target T2, Recombinant human HDAC3/NCoR2 (Homo sapiens, UniProt O15379). Conditions: cited from earlier work.
Data set [3] addresses T2, Recombinant human HDAC3/NCoR2. As to the kind of experiment: HDAC3/NCoR2 deacetylase activity assay (acetyl-Lys(Ac)-AMC / Lys-C peptidase, progression curves).
Data set [4] has as its target T1, Recombinant human HDAC1. To be noted: cited from earlier work.
The test system of data set [5] is FXN mRNA. As to the kind of experiment: qRT-PCR of FXN mRNA in FRDA iPSC-derived neurons treated with HDAC inhibitors. The data set is classed as cell-based, human. Conditions: for effect on FXN mRNA levels: 16-day-old FRDA neurons, 24 h, varying concentrations (Figure 2); for up-regulation of FXN mRNA: 10 μM for 24 h, data not shown. On the procedure:
(§1) All methods for iPSC derivation ([32]) and neuronal differentiation ([28], [33]) have been presented. […] Quantitative RT-PCR was performed as described ([28]), with the following primer pairs: • FXN: 5′-[…]-3′ and 5′-[…]-3′ • HDAC1: 5′-[…]-3′ and 5′-[…]-3′ • HDAC2: 5′-[…]-3′ and 5′-[…]-3′ • HDAC3: 5′-[…]-3′ and 5′-[…]-3′ • PCGF2: 5′-[…]-3′ and 5′-[…]-3′ • H2AFY2: 5′-[…]-3′ and 5′-[…]-3′
(§2) Data were normalized to RNA concentration and p values calculated using the t-test. Western blotting was performed as described ([28]), with antibodies to HDACs 1, 2, and 3 from Abcam (ab7028, ab7029, ab7030, respectively), used at a dilution of 1:5000. […] Protein concentrations were determined with the BCA assay (Thermo Scientific).

On the set-up of data set [6]: method as in PMID 27721337, PMID 22973455. Conditions: in vivo, cited from earlier work.
The subject of data set [7] is FXN mRNA. Details: method as in PMID 16921367. To be noted: FRDA primary lymphocytes; cited from earlier work.
The test system of data set [8] is FXN mRNA. Conditions: cited from earlier work; for effect on FXN gene expression: lymphoid cells.
The test system of a further data set is PCGF2 mRNA. Briefly: qRT-PCR of PCGF2 mRNA in FRDA neuronal cells. Conditions: 24 h. The data set is classed as cell-based, human. On the procedure: as §1, §2
The next data set concerns H2AFY2 mRNA. As to the kind of experiment: qRT-PCR of H2AFY2 mRNA in FRDA neuronal cells. The data set is classed as cell-based, human. To be noted: 24 h. As for the experimental part: as §1, §2
In general terms: Real-time PCR tracks product formation cycle by cycle.

On the set-up of data set [9]: method as in PMID 25159818. To be noted: preclinical studies; cited from earlier work.
Data set [10] relates to FXN mRNA. More on the design: method as in PMID 25159818. Conditions: cited from earlier work.
The conditions of data set [11]: cited from earlier work.
The subject of data set [12] is FXN mRNA. More on the design: method as in PMID 12516053. To be noted: cited from earlier work.
Another data set concerns HDAC. Details: method as in PMID 16921367, PMID 18953021. To be noted: cited from earlier work.
The mark [13] stands for this setting: fit of kobs versus inhibitor concentration.
Setting [14] is: progression curves, mechanism 2.
[15] abbreviates: progression curves, mechanism 1.

Broadly, the pIC50 is the IC50 on a negative log10 scale, so that one unit is a factor of ten.

pIC50: −log10 of the molar value. “Also recorded” adds a separate entry of the source. Read-outs that look alike come from different tables or passages of the source.

T1 sequence (Q13547 whole entry): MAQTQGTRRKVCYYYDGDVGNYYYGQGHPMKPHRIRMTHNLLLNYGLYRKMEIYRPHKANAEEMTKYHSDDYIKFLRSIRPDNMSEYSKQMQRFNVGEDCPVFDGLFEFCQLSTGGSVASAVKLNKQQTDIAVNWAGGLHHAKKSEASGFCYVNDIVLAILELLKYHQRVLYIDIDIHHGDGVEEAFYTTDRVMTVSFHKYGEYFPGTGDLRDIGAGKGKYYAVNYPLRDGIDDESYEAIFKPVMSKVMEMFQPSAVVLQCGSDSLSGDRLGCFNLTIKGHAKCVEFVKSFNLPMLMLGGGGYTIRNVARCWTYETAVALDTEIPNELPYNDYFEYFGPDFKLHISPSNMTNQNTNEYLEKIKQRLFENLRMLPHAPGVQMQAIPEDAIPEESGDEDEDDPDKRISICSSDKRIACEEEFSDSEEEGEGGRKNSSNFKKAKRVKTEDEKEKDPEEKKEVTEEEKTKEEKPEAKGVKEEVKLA
T2 sequence (O15379 whole entry): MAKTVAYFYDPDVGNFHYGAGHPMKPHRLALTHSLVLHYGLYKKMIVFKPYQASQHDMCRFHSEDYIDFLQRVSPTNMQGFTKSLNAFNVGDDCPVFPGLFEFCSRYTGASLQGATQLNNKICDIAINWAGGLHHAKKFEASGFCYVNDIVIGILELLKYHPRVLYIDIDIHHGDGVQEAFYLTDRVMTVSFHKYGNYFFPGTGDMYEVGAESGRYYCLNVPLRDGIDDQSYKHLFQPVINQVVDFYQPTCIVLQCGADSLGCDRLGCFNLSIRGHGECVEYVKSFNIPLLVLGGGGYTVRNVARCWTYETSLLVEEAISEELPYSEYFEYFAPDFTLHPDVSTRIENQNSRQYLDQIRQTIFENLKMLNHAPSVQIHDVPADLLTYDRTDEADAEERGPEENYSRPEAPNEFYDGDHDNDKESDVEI
T2 sequence (Q9Y618 395-489 partner limits assumed): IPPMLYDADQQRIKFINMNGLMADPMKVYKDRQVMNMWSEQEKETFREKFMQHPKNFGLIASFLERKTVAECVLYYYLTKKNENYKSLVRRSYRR

For `Nc1ccc(-c2ccccc2)cc1NC(=O)CCCCCC(=O)Nc1ccccc1` [HDACi 3, N^1-(4-aminobiphenyl-3-yl)-N^7-phenylheptanediamide], the “inhibition mechanism HDAC1” value on Recombinant human HDAC1 [1] (setting [13]) is reported as “slow-on/slow-off inhibition mechanism 2”. Also, at Recombinant human HDAC1 [1] (from Table 1 values), the “preference for HDAC1 over HDAC3 comparing IC50 values” is recorded as ~ 75 fold and the “preference for HDAC1 over HDAC3 from Ki measurements” value was ~ 350 fold. Also, on Recombinant human HDAC1 [1] (setting [14]), the “k2 HDAC1” value was “k2 = 0.1675 min^−1” and the “k−2 HDAC1” value is given as “k−2 = 0.0017 min^−1”. Further, the pIC50 in data set [2] is 5.02. In addition, the “inhibition mechanism HDAC3” value in data set [3] (setting [13]) is reported as “mechanism 1”. Besides, in [3] (setting [15]), the “k1 HDAC3” value is on record as “k1 = 600 min^-1 M^−1” and the “k−1 HDAC3” value is reported as “k−1 = 0.0015 min^−1”. Besides, the “Selectivity HDAC3 (from IC50)” value in data set [3] (ratio of IC50 HDAC1 to IC50 HDAC3, from data of refs 25, 26) is given as 0.013. Further, the pIC50 at Recombinant human HDAC1 [4] was 6.90. In addition, in the data set with FXN mRNA [5], the “effect on FXN mRNA levels” value is “no effect; also recorded: weakly active”.
Take `Cc1ccc(C(=O)NCCCCCC(=O)Nc2ccccc2N)cc1` [HDACi 109, N-(6-(2-aminophenylamino)-6-oxohexyl)-4-methylbenzamide]: the “metabolic conversion / benzimidazole formation” value is “conversion of the active molecule into an inactive metabolic product” in [6] and “conversion of the active molecule into inactive, potentially toxic metabolic products” in [6] (listed as 109/RG2833).
As for `Nc1ccccc1NC(=O)CCCCCC(=O)Nc1ccccc1` [4b, N^1-(2-aminophenyl)-N^7-phenylheptanediamide], the “FXN mRNA levels” value with FXN mRNA [7] is listed as “significantly increase FXN mRNA levels”.
On to `NC(=O)c1cccnc1` [nicotinamide], for which the “FXN mRNA levels” value in the data set with FXN mRNA [8] (FRDA lymphoblasts) is listed as “increases FXN mRNA levels”.
Take `Nc1ccccc1NC(=O)CCCCCCC(=O)Nc1ccccc1` [BML-210, N^1-(2-aminophenyl)-N^8-phenyloctanediamide]: the “FXN mRNA expression” value with FXN mRNA [8] (FRDA lymphoblasts) was “significant increase”.
With `O=C(CCCCCCC(=O)Nc1ccccc1)NO` [SAHA], in the data set on FXN mRNA [8], the “effect on FXN gene expression” value is “without effect on FXN gene expression”.
With `Cc1ccc(C(=O)NCCCCCC(=O)Nc2ccc(F)cc2N)cc1` [HDACi 136, N-(6-(2-amino-4-fluorophenylamino)-6-oxohexyl)-4-methylbenzamide], the “PCGF2 mRNA level” value with PCGF2 mRNA (5 μM (lower concentrations)) was “inactive at lower concentrations”; in the data set with PCGF2 mRNA (10 μM), “moderately active”. Moreover, the “H2AFY2 mRNA level” value is “inactive at lower concentrations” with H2AFY2 mRNA (5 μM (lower concentrations)) and “moderately active” in the data set on H2AFY2 mRNA (10 μM). The “effect on FXN mRNA levels” value in the data set with FXN mRNA [5] was “only a modest effect; also recorded: inactive”.
Consider `c1ccc2[nH]cnc2c1` [benzimidazole], for which the “risk category for inducing QTc prolongation” value in data set [9] is recorded as “high-risk category”.
With `Nc1cc(F)ccc1NC(=O)/C=C/c1cnn(CC=Cc2ccccc2)c1` [HDACi 966, (E)-N-(2-amino-4-fluorophenyl)-3-(1-cinnamyl-1H-pyrazol-4-yl)acrylamide], the “selectivity for HDAC3 over HDAC1/2” value in [2] is recorded as ~ 30 fold. In addition, the “up-regulation of FXN mRNA” value in the data set with FXN mRNA [5] (FRDA neuronal cells) is listed as “did not”. In addition, the “induction of FXN gene expression in FRDA neuronal cells” value in the data set with FXN mRNA [10] is “inactive”.
`Nc1ccccc1NC(=O)/C=C/c1cn(C/C=C/c2ccccc2)nn1` [Click-1]: the “PCGF2 mRNA level” value in the data set with PCGF2 mRNA (5 μM (lower concentrations)) is reported as “significantly down-regulate”. Further, in [11], the brain/plasma ratio was more than 0.7. For the same molecule, in data set [6], the “metabolic conversion / benzimidazole formation” value was “stability to benzimidazole formation”. The “H2AFY2 mRNA level” value in the data set with H2AFY2 mRNA (5 μM (lower concentrations)) was “significantly down-regulate”. Besides, the “FXN mRNA increase compared with HDACi 109” value in the data set with FXN mRNA [5] (FRDA neuronal cells, varying concentrations (Figure 6B)) is “equivalent activities; also recorded: no loss of activity”.
On to `CCCC(=O)[O-].[Na+]` [sodium butyrate], for which, in the data set with FXN mRNA [12], the “ability to increase FXN mRNA expression” value was “only a modest effect”.
For the molecule `CC(/C=C/C(=O)NO)=C\[C@@H](C)C(=O)c1ccc(N(C)C)cc1` [TSA], in the data set on FXN mRNA [8], the “effect on FXN gene expression” value was “without effect on FXN gene expression”. Besides, the inhibition mechanism entry in the data set with HDAC was “rapid-on/rapid-off inhibitors”.
As to `Cc1ccc(NC(=O)CCCCCC(=O)Nc2ccccc2N)cc1` [HDACi 106], in data set [6], the “metabolic conversion / benzimidazole formation” value was “conversion of the active molecule into an inactive metabolic product”. The “inhibition mechanism HDAC1” value on Recombinant human HDAC1 [4] is “slow-on/slow-off inhibitor”.
As to `Nc1ccc(-c2cccs2)cc1NC(=O)CCCCCCNC(=O)c1cccnc1` [HDACi 233, N-(2-amino-5-(2-thienyl)phenyl)-7-nicotinoylamino-heptanamide], the “selectivity for HDAC1 over HDAC3” value at Recombinant human HDAC1 [4] was more than 200 fold. In addition, in the data set on FXN mRNA [5] (FRDA neuronal cells), the “up-regulation of FXN mRNA” value is “did not”. Further, the “induction of FXN gene expression in FRDA neuronal cells” value with FXN mRNA [10] was “weakly active”.
